Results on 15 molecules are retold here after ChEMBL document CHEMBL6109116, “Peripherally Restricted Fused Heterocyclic Peptidomimetic Multifunctional Opioid Agonists as Novel, Potent Analgesics” (ACS Med Chem Lett, 2025).

The target of series [1] is Mu-type opioid receptor (Rattus norvegicus, UniProt P33535). The series is described as follows: Displacement of [3H]-DAMGO from rat cortical membrane MOR assessed as inhibition constant incubated for 2 hrs by Wallac Betaplate liquid scintillation counting analysis. The class given is cell membranes, Cortex. (In general: In a radioligand displacement assay an active substance lowers the binding of a labelled ligand.)

Series [2] deals with Mus musculus. Nature of the series: Antinociceptive activity in male C57BL/6J mouse at 10 mg/kg, ip measured after 10 min by 55 degreeC warm-water tail-withdrawal assay. In kind it is functional, organism-based.
Series [3] addresses Delta-type opioid receptor (Mus musculus) (UniProt P32300). Nature of the series: Agonist activity at mouse DOR extracted from CHO cell membrane assessed as stimulation of [35S]GTPgammaS binding at 1 to 10 uM incubated for 60 mins by liquid scintillation counting assay. The class given is functional, cell membranes. Particulars: filed as agonist, dose 1-10 µM. A general note: GTPγS is a poorly hydrolysed GTP analogue; its binding reports G protein activation.

The test system of series [4] is Mus musculus. The series is described as follows: Antinociceptive activity in KOR knockout male C57BL/6J mouse model at 10 nmol, ICV administered for 10 mins by 55 degreeC warm-water tail-withdrawal assay. In kind it is functional, organism-based.
Series [5] deals with Mus musculus. The series is described as follows: Antinociceptive activity in MOR knockout male C57BL/6J mouse model at 10 nmol, ICV administered for 10 mins by 55 degreeC warm-water tail-withdrawal assay. In kind it is functional, organism-based.
Series [6] has as its target Kappa-type opioid receptor (Cavia porcellus, UniProt P41144). Nature of the series: Displacement of [3H]U69593 from guinea pig KOR assessed as inhibition constant incubated for 2 hrs by Wallac Betaplate liquid scintillation counting analysis.
Series [7] in a line: Toxicity in male C57BL/6J mouse assessed as lethality up to 30 mg/kg, ip measured after 10 min. In kind it is organism-based. The settings on record: in vivo.
Series [8] has as its target Mu-type opioid receptor (Rattus norvegicus) (UniProt P33535). The series is described as follows: Partial agonist activity at rat MOR extracted from CHO cell membrane assessed as stimulation of [35S]GTPgammaS binding at 1 to 10 uM incubated for 60 mins by liquid scintillation counting assay. The settings on record: dose 1-10 µM. The class given is functional, cell membranes.

The subject of series [9] is Mus musculus. Nature of the series: Antinociceptive activity in male C57BL/6J mouse at 10 nmol, ICV administered for 8 hrs by 55 degreeC warm-water tail-withdrawal assay. The class given is functional, organism-based.
In series [10] the target is Kappa-type opioid receptor (Homo sapiens) (UniProt P41145). Nature of the series: Partial agonist activity at human KOR extracted from CHO cell membrane assessed as stimulation of [35S]GTPgammaS binding at 1 to 10 uM incubated for 60 mins by liquid scintillation counting assay. The class given is functional, cell membranes. The settings on record: filed as partial agonist, dose 1-10 µM.

Series [11] concerns Mus musculus. The series is described as follows: Antinociceptive activity in wild type male C57BL/6J mouse model at 10 nmol, ICV preadministered with naltrindole for 20 mins followed by compound administration for 10 mins. In kind it is functional, organism-based.
Series [12] has as its target Delta-type opioid receptor (Rattus norvegicus, UniProt P33533). Nature of the series: Displacement of [3H]-DPDPE from rat cortical membrane DOR assessed as inhibition constant incubated for 2.5 hrs by Wallac Betaplate liquid scintillation counting analysis. The class given is cell membranes, Cortex.
Series [13] is filed under the species Mus musculus. Nature of the series: Antinociceptive activity in male C57BL/6J mouse measured after 10 min by 55 degreeC warm-water tail-withdrawal assay. The class given is functional.
Series [14] can be described thus: Selectivity ratio of ED50 for antinociceptive activity in male C57BL/6J mouse at 10 mg/kg, ip measured after 10 min by 55 degreeC warm-water tail-withdrawal assay to ED50 for antinociceptive activity in male C57BL/6J mouse preadministered with compound for 10 mins followed by acetic acid administration and measured after 15 to 30 min by Acetic acid stretching assay (AcAS). In kind it is functional.

Series [15] is described as follows: Toxicity in C57BL/6J mouse assessed as respiratory depression at 15 mg/kg, ip measured after 20 mins. The class given is organism-based. Particulars: in vivo.
Series [16] relates to Mus musculus. Nature of the series: Antinociceptive activity in male C57BL/6J mouse assessed as peripheral restriction at 15 mg/kg, ip pre-treated with naloxone methiodide at 30 mg/kg, SC for 30 min by 55 degreeC warm-water tail-withdrawal assay. The class given is functional.
Series [17] is described as follows: Toxicity in C57BL/6J mouse assessed as increase in ambulation at 15 mg/kg, ip measured up to 120 min. The class given is organism-based. The settings on record: in vivo, 2 h.
The test system of series [18] is Mus musculus. The series is described as follows: Antinociceptive activity in male C57BL/6J mouse at 15 mg/kg, po by 55 degreeC warm-water tail-withdrawal assay. In kind it is functional, organism-based. The settings on record: time <= 60.0 min.
In series [19] the target is Mu-type opioid receptor (Rattus norvegicus) (UniProt P33535). The series is described as follows: Partial agonist activity at rat MOR extracted from CHO cell membrane assessed as stimulation of [35S]GTPgammaS binding at 10 uM incubated for 60 mins by liquid scintillation counting assay. The settings on record: filed as partial agonist. In kind it is functional, cell membranes.

Series [20] concerns Mus musculus. Nature of the series: Antinociceptive activity in male C57BL/6J mouse assessed as peripheral restriction at 15 mg/kg, ip pre-treated with naloxone methiodide at 30 nmol, ICV for 30 min by 55 degreeC warm-water tail-withdrawal assay. The class given is functional.
Series [21] concerns the target Delta-type opioid receptor (Mus musculus) (UniProt P32300). The series is described as follows: Partial agonist activity at mouse DOR extracted from CHO cell membrane assessed as stimulation of [35S]GTPgammaS binding at 1 to 10 uM incubated for 60 mins by liquid scintillation counting assay. In kind it is functional, cell membranes. The settings on record: filed as partial agonist, dose 1-10 µM.

Series [22] relates to Mus musculus. Nature of the series: Antinociceptive activity in male C57BL/6J mouse preadministered with compound for 10 mins followed by acetic acid administration and measured after 15 to 30 min by Acetic acid stretching assay (AcAS). The class given is functional. Particulars: time 25-40 min.
Series [23] in a line: Toxicity in C57BL/6J mouse assessed as effect on locomotor activity at 15 mg/kg, ip measured up to 120 min. In kind it is organism-based. The settings on record: in vivo, 2 h.
Series [24] concerns Mus musculus. The series is described as follows: Antinociceptive activity in male C57BL/6J mouse assessed as peripheral restriction at 15 mg/kg, ip by 55 degreeC warm-water tail-withdrawal assay. In kind it is functional.
For series [25], the species on record is Mus musculus. The series is described as follows: Acute antinociceptive activity in male C57BL/6J mouse measured after 30 min by 55 degreeC warm-water tail-withdrawal assay. Particulars: 0.5 h.

Activity calls are given as the source filed them. The calls are words filed in the database; no cut-off is given here.

Mu-type opioid receptor, sequence (P33535 whole entry): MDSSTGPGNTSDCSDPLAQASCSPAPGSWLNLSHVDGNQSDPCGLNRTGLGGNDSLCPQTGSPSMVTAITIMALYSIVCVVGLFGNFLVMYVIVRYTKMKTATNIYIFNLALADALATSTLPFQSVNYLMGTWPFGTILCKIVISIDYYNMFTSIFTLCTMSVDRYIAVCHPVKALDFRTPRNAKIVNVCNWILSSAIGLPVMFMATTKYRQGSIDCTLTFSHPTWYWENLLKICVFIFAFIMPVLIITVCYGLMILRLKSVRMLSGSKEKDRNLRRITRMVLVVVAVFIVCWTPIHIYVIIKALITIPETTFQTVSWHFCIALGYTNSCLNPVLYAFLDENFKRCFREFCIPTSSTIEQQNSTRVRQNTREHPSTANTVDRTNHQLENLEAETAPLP
Mu-type opioid receptor (Rattus norvegicus), sequence (P33535 whole entry): as above
Kappa-type opioid receptor, sequence (P41144 whole entry): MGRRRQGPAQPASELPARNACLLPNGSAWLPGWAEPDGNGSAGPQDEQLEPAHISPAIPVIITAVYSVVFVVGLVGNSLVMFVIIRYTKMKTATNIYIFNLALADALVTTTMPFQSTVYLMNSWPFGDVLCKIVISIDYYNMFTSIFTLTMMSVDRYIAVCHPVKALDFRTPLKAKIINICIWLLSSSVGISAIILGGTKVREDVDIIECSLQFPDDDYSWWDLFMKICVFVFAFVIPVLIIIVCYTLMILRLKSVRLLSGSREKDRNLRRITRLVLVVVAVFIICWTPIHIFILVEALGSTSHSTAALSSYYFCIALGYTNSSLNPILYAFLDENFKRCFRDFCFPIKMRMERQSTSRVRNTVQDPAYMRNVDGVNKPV
Delta-type opioid receptor (Mus musculus), sequence (P32300 whole entry): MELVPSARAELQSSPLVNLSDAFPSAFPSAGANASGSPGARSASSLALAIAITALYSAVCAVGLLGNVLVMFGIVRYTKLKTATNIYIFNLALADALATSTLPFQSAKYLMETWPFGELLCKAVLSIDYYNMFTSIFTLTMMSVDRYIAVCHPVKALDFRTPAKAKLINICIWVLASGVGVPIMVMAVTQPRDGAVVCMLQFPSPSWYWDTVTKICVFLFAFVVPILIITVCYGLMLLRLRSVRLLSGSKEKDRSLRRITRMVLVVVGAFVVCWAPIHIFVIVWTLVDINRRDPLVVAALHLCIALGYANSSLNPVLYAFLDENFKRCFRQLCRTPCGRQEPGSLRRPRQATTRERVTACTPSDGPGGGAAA
Delta-type opioid receptor, sequence (P33533 whole entry): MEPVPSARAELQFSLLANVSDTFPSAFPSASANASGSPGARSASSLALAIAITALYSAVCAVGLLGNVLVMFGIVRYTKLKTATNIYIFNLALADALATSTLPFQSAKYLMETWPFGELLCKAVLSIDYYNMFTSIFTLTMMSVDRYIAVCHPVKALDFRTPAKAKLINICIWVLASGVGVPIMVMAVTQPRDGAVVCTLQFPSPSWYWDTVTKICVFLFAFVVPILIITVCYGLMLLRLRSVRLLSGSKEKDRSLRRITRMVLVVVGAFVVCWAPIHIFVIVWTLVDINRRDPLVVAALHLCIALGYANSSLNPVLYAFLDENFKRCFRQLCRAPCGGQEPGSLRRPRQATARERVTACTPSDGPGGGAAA
Kappa-type opioid receptor (Homo sapiens), sequence (P41145 whole entry): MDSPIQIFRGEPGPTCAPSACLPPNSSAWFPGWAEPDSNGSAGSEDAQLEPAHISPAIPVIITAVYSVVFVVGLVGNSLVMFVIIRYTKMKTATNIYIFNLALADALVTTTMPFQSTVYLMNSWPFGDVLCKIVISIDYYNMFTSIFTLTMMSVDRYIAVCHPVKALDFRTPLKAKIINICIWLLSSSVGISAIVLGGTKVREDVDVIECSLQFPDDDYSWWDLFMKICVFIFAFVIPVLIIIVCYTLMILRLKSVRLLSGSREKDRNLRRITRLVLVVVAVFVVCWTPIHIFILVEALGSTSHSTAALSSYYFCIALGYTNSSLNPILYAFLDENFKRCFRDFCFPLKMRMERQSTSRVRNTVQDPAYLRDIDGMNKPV

On to `CC(C)C[C@H]1CN2C(=CC3=NC[C@H](CN(C)C)N3C[C@@H]2Cc2ccc(O)cc2)N1CCc1ccccc1`, for which the Ki in [1] is 100 nM; in [6], 47 nM; in series [12], 5 nM. For the same molecule, the Activity entry in series [2] is “Active; Minimal Antinociception Observed”; in [7], “Toxic”; in series [8], “Not active; No Significant Activity”; in [9] it was “Active; Comparable To Morphine And U50,490”. Also, the result in series [3] and in series [10] was Active. The result in [4], in series [5] and in series [11] was inactive.
On to `CN1CCN(CCN2C(=N)N([C@@H](CCCNC(=N)N)CN3C(=N)NC[C@@H]3Cc3ccc(O)cc3)C[C@@H]2Cc2ccc(O)cc2)CC1`, for which the Ki is 197 nM in series [1], 87 nM in series [6] and 40 nM in series [12]. Besides, the ED50 in series [13] was 3.9 mg/kg; in series [22], 4.97 mg/kg. Moreover, the “Ratio ED50” value in series [14] is 0.78. For the same molecule, the Activity result in series [15] is “Non-toxic”; in series [16], 2.5%; in series [17], “Non-toxic”; in [18], “Time-dependent-effect”; in series [20] it was 10.1%; in series [21] it was “Active; Weak Partial Agonism Observed”. Besides, the Activity entry was “Non-toxic” in series [23], “Active; Comparable To Morphine And U50,491” in series [9] and 89.7% in [24]. The result in series [4], in series [5] and in [11] was inactive. Moreover, the result in series [19] and in [10] was Active.
As for `CC(C)C[C@H]1CN=C2C=C3N(CCN4CCOCC4)[C@@H](Cc4ccc(O)cc4)CN3[C@@H](Cc3ccc(O)cc3)CN21`, the values for the Ki in [1], in series [6] and in series [12] were 108 nM, 20 nM and 42 nM, respectively.
For `CN1CC[C@]23c4c5ccc(O)c4O[C@H]2[C@@H](O)C=C[C@H]3[C@H]1C5` [MORPHINE], in series [14], the “Ratio ED50” value is reported as 3.75. The ED50 in [25] came to 3.37 mg/kg; in series [22], 0.9 mg/kg.
With `CC(C)(C)c1ccc(S(=O)(=O)NCCN2C(=N)N([C@@H](Cc3ccc(O)cc3)CN3C(=N)NC[C@@H]3CCCNC(=N)N)C[C@@H]2CCCNC(=N)N)cc1`, the values for the Ki in [1], in series [6] and in [12] were 458 nM, 49 nM and 84 nM, respectively.
Turning to `CC(C)[C@H]1CN=C2C=C3N4C[C@H](O)C[C@H]4CN3[C@@H](Cc3ccc(O)cc3)CN21`, the Ki came out at 254 nM in [1], 16 nM in series [6] and 34 nM in series [12].
For `CC(C)[C@H]1CN=C2C=C3N(CCN4CCOCC4)[C@@H](Cc4ccc(O)cc4)CN3[C@@H](Cc3ccc(O)cc3)CN21`, in that order: 51 nM, 41 nM and 11 nM.
As to `CC(C)C[C@H]1CN=C2C=C3N4CCC[C@H]4CN3[C@@H](Cc3ccc(O)cc3)CN21`, the Ki came to 169 nM in series [1], 40 nM in series [6] and 10 nM in series [12].
Take `CC(C)[C@H]1CN=C2C=C3N(CCc4ccccc4)[C@@H](CCN(C)C)CN3[C@@H](Cc3ccc(O)cc3)CN21`: the Ki in series [1] worked out at 34 nM; in series [6], 20 nM; in [12], 8 nM.
For `CC(C)C[C@H]1CN([C@@H](Cc2ccc(O)cc2)CN2C(=N)NC[C@@H]2CCCNC(=N)N)C(=N)N1CCNS(=O)(=O)c1ccc(C(C)(C)C)cc1`, in that order: 120 nM, 48 nM and 1 nM.
Consider `CC(C)(C)c1ccc(S(=O)(=O)NCCN2C(=N)N([C@@H](CCCNC(=N)N)CN3C(=N)NC[C@@H]3CCCNC(=N)N)C[C@@H]2CCCNC(=N)N)cc1`, for which the Ki in series [1] stood at 340 nM; in series [6] it was 93 nM; in series [12], 7 nM.
Take `CC(C)[C@H]1CN=C2C=C3N(CCc4ccccc4)[C@@H](CN(C)C)CN3[C@@H](Cc3ccc(O)cc3)CN21`: the Ki in series [1] was 26 nM; in series [6], 37 nM; in [12] it was 4 nM.
Take `CC(C)C[C@H]1CN2C(=CC3=NC[C@@H](C(C)C)N3C[C@H]2Cc2ccc(O)cc2)N1CCc1ccccc1`: the values for the Ki in [6] and in [12] were 43 nM and 1 nM, respectively.
`CC(C)C[C@H]1CN2C(=CC3=NC[C@H](CCN(C)C)N3C[C@@H]2Cc2ccc(O)cc2)N1CCc1ccccc1`: the Ki amounted to 212 nM in [1], 24 nM in series [6] and 5 nM in [12]. For the same molecule, the ED50 came out at 2.19 mg/kg in series [13] and 0.2 mg/kg in series [22]. For the same molecule, in series [14], the “Ratio ED50” value was determined as 10.73. The Activity entry in series [15] is “Non-toxic”; in [16], 1.2%; in series [17] it was “Non-toxic”; in series [18], “Time-dependent-effect”; in series [20] it was 42%; in series [21] it was “Active; Weak Partial Agonism Observed”. The Activity entry was “Not active; No Significant Activity” in [8], “Non-toxic” in [23], “Active; Comparable To Morphine And U50,488” in [9] and 96.3% in series [24]. Besides, the outcome in series [4], in series [5] and in [11] was inactive.
For `CC(C)C[C@H]1CN2C(=CC3=NC[C@H](CC(C)C)N3C[C@@H]2Cc2ccc(O)cc2)N1CCN1CCOCC1`, the Ki was found to be 157 nM in series [1], 15 nM in [6] and 16 nM in series [12].

In general, Ki refers to a measure of affinity in units of concentration, obtained from inhibition or displacement. The ED50 is the midpoint of the dose-response relation.
